According to the CheMixHub viscosity set:

Test: xn = mol fraction of the nth substance listed

C=C(C)C(=O)OC + C1CCCCC1
303.15 K, 101 kPa
Conditions | viscosity [mPa·s]
x1 = 0.1178 | 0.6811
x1 = 0.2021 | 0.6254
x1 = 0.3973 | 0.5474
x1 = 0.4984 | 0.5261
x1 = 0.5963 | 0.5188
x1 = 0.804 | 0.5141
x1 = 0.9019 | 0.5099

C=C(C)C(=O)OC + CCCCCC
303.15 K, 101 kPa
Conditions | viscosity [mPa·s]
x1 = 0.1029 | 0.2962
x1 = 0.2077 | 0.3069
x1 = 0.4005 | 0.3338
x1 = 0.5052 | 0.3523
x1 = 0.6046 | 0.3758
x1 = 0.7056 | 0.4934

ClCCCCCCCl + Cc1ccccc1
viscosity [mPa·s], 101 kPa
Conditions | x1 = 0.07864 | x1 = 0.1578 | x1 = 0.2467 | x1 = 0.3346 | x1 = 0.4309 | x1 = 0.533 | x1 = 0.6475 | x1 = 0.755 | x1 = 0.8707
308.15 K | 0.536 | 0.604 | 0.676 | 0.764 | 0.868 | 0.978 | 1.121 | 1.267 | 1.44
313.15 K | 0.514 | 0.57 | 0.639 | 0.712 | 0.807 | 0.911 | 1.043 | 1.175 | 1.345
318.15 K | 0.49 | 0.543 | 0.605 | 0.682 | 0.769 | 0.865 | 0.983 | 1.095 | 1.228

CS(=O)(=O)[O-].C[NH+]1CCCC1=O + O
viscosity [mPa·s], 100 kPa
Conditions | x1 = 0.00179 | x1 = 0.003586 | x1 = 0.005368 | x1 = 0.008047 | x1 = 0.01067 | x1 = 0.01419 | x1 = 0.02096 | x1 = 0.0263 | x1 = 0.03141
293.15 K | 1.057 | 1.106 | 1.151 | 1.222 | 1.295 | 1.396 | 1.594 | 1.754 | 1.917
298.15 K | 0.9409 | 0.9808 | 1.02 | 1.08 | 1.146 | 1.233 | 1.409 | 1.551 | 1.681
303.15 K | 0.8421 | 0.8782 | 0.9124 | 0.9664 | 1.022 | 1.099 | 1.254 | 1.374 | 1.483
308.15 K | 0.7603 | 0.7902 | 0.8191 | 0.8672 | 0.9163 | 0.9865 | 1.126 | 1.232 | 1.325

CC1(c2ccccc2)OC1C#N (stereo unspecified) + ClC(Cl)(Cl)Cl
101 kPa, x1 = 0.024
Conditions | viscosity [mPa·s]
293.15 K | 1.041
298.15 K | 0.964
303.15 K | 0.902
313.15 K | 0.8
323.15 K | 0.723

[Sn] + [Ga]
323 K, 100 kPa
Conditions | viscosity [mPa·s]
x1 = 0.085 | 1.693
x1 = 0.164 | 2.223
x1 = 0.37 | 3.637
x1 = 0.638 | 5.381
x1 = 0.841 | 6.576

ClCCCCCCCl + Cc1cc(C)cc(C)c1
viscosity [mPa·s], 101 kPa
Conditions | x1 = 0.1049 | x1 = 0.2004 | x1 = 0.2961 | x1 = 0.4028 | x1 = 0.4994 | x1 = 0.5986 | x1 = 0.7 | x1 = 0.7998 | x1 = 0.9005
308.15 K | 0.645 | 0.714 | 0.798 | 0.896 | 0.995 | 1.106 | 1.221 | 1.352 | 1.488
313.15 K | 0.615 | 0.678 | 0.752 | 0.842 | 0.929 | 1.031 | 1.137 | 1.264 | 1.394
318.15 K | 0.586 | 0.651 | 0.709 | 0.795 | 0.877 | 0.972 | 1.071 | 1.182 | 1.289

CCCC[n+]1ccn(C)c1.O=C([O-])C(F)(F)F + O
Conditions | viscosity [mPa·s]
298.15 K, 101 kPa, x2 = 0.7927 | 9.03

C=C(C)C(=O)OC + CC(C)OC(C)C
viscosity [mPa·s], 101.3 kPa
Conditions | 298.15 K | 308.15 K
x1 = 0.0416 | 0.385 | 0.291
x1 = 0.1479 | 0.401 | 0.309
x1 = 0.2488 | 0.417 | 0.326
x1 = 0.3488 | 0.434 | 0.344
x1 = 0.4527 | 0.453 | 0.364
x1 = 0.4958 | 0.461 | 0.372
x1 = 0.5472 | 0.472 | 0.383
x1 = 0.6489 | 0.493 | 0.404
x1 = 0.7504 | 0.517 | 0.427
x1 = 0.8502 | 0.542 | 0.451
x1 = 0.944 | 0.569 | 0.474

C=C(C)C(=O)OC + c1ccccc1
303.15 K, 101 kPa
Conditions | viscosity [mPa·s]
x1 = 0.1019 | 0.5507
x1 = 0.198 | 0.543
x1 = 0.4005 | 0.5273
x1 = 0.4996 | 0.522
x1 = 0.5998 | 0.519
x1 = 0.8001 | 0.5141
x1 = 0.896 | 0.5142

CC(=O)Oc1ccccc1 + CCCCCOC(C)=O
Conditions | viscosity [mPa·s]
298.15 K, 101 kPa, x1 = 0.5 | 0.9319

CCCCC/C=C\C/C=C\CCCCCCCC(=O)OCC(COC(=O)CCCCCCC/C=C\C/C=C\CCCCC)OC(=O)CCCCCCC/C=C\C/C=C\CCCCC + c1ccccc1
viscosity [mPa·s], 101.3 kPa
Conditions | x1 = 0.000427 | x1 = 0.000515 | x1 = 0.000838 | x1 = 0.001044 | x1 = 0.001751 | x1 = 0.004505 | x1 = 0.007049 | x1 = 0.009645
298.15 K | 0.6136 | 0.6153 | 0.6216 | 0.6257 | 0.6401 | 0.6974 | 0.7485 | 0.8054
303.15 K | 0.5723 | 0.5739 | 0.5797 | 0.5836 | 0.597 | 0.6502 | 0.6975 | 0.7492
308.15 K | 0.535 | 0.5365 | 0.5419 | 0.5455 | 0.558 | 0.6077 | 0.6515 | 0.6986

C[N+](C)(C)CCC[N+]1(C)CCCCC1.N#C[N-]C#N.N#C[N-]C#N + CC#N
viscosity [mPa·s], 100 kPa
Conditions | x1 = 0.0999 | x1 = 0.7001 | x1 = 0.7996
298.15 K | – | – | 895.3
318.15 K | 2.675 | 163.5 | –

O=C(O)CCCC(=O)O + C[N+](C)(C)CCO.[Cl-]
100 kPa, x2 = 0.5
Conditions | viscosity [mPa·s]
293.15 K | 2968
298.15 K | 2015
303.15 K | 1408
308.15 K | 1007
313.15 K | 735.8
318.15 K | 547.5
323.15 K | 414.6

C=C(C)C(=O)OC + ClCCCl
303.15 K, 101 kPa
Conditions | viscosity [mPa·s]
x1 = 0.1012 | 0.6868
x1 = 0.1978 | 0.6544
x1 = 0.3975 | 0.6068
x1 = 0.4985 | 0.5867
x1 = 0.6234 | 0.5632
x1 = 0.8713 | 0.5284

C=C(C)C(=O)OC + CCCCCCCO
viscosity [mPa·s], 101.3 kPa
Conditions | 298.15 K | 308.15 K
x1 = 0.0526 | 4.782 | 3.544
x1 = 0.1258 | 3.728 | 2.828
x1 = 0.2484 | 2.538 | 1.991
x1 = 0.3455 | 1.926 | 1.546
x1 = 0.4471 | 1.483 | 1.213
x1 = 0.5009 | 1.307 | 1.078
x1 = 0.5615 | 1.143 | 0.95
x1 = 0.6456 | 0.965 | 0.81
x1 = 0.7444 | 0.811 | 0.685
x1 = 0.8476 | 0.695 | 0.588
x1 = 0.9438 | 0.618 | 0.522
